System: Legionella

`OCl` [sodium hypochlorite] was tested, and the “Legionella test of bath water” value was “detected” and the “Count of the bacteria of the genus Legionella in bath water” value (start 300 CFU/100 ml, free residual chlorine max 2 mg/l for 2 hours, then 3 days at sodium hypochlorite 0.4 mg/l, 2000 bathers per day) was 1300 CFU/100 ml.

Source: US20040029758A1 (priority 2000, published 2004)
